In patent publication US7449476B2, “Tetrahydrocarboline antiviral agents” (priority 2004, dated 2008):

Test system: HIV-1
Experiment: Single-round infectious HIV-1 luciferase reporter virus infection of HeLa CD4 cells
Type: cell-based
Settings: Human immunodeficiency virus 1, HeLa, 72 h
Protocol: Cells: (virus production) human embryonic kidney cell line, 293, was propagated in Dulbecco's Modified Eagle Medium (Invitrogen, Carlsbad, Calif.) containing 10% fetal Bovine serum (FBS, Sigma, St. Louis, Mo.); (virus infection) human epithelial cell line, HeLa, expressing the HIV-1 receptor CD4 was propagated in Dulbecco's Modified Eagle Medium (Invitrogen, Carlsbad, Calif.) containing 10% fetal Bovine serum (FBS, Sigma, St. Louis, Mo.) and supplemented with 0.2 mg/mL Geneticin (Invitrogen, Carlsbad, Calif.).
Virus: single-round infectious reporter virus was produced by co-transfecting human embryonic kidney 293 cells with an HIV-1 envelope DNA expression vector and a proviral cDNA containing an envelope deletion mutation and the luciferase reporter gene inserted in place of HIV-1 nef sequences. Transfections were performed using lipofectAMINE PLUS reagent as described by the manufacturer (Invitrogen, Carlsbad, Calif.).
Experiment: HeLa CD4 cells were plated in 96 well plates at a cell density of 1×10^4 cells per well in 100 μl Dulbecco's Modified Eagle Medium containing 10% fetal Bovine serum and incubated overnight. Compound was added in a 2 μl dimethylsulfoxide solution, so that the final assay concentration would be ≦10 μM. Single-round infectious reporter virus (100 μL) in Dulbecco's Modified Eagle Medium was then added to the plated cells and compound at an approximate multiplicity of infection (MOI) of 0.01, resulting in a final volume of 200 μl per well. Virally-infected cells were incubated at 37 degrees Celsius, in a CO2 incubator, and harvested 72 h after infection. Viral infection was monitored by measuring luciferase expression from viral DNA in the infected cells using a luciferase reporter gene assay kit, as described by the manufacturer (Roche Molecular Biochemicals, Indianapolis, Ind.). Infected cell supernatants were removed and 50 μl of lysis buffer was added per well. After 15 minutes, 50 μl of freshly-reconstituted luciferase assay reagent was added per well. Luciferase activity was then quantified by measuring luminescence using a Wallac microbeta luminescence reader.
The percent inhibition for each compound was calculated by quantifying the level of luciferase expression in cells infected in the presence of each compound as a percentage of that observed for cells infected in the absence of compound and subtracting such a determined value from 100. The effective concentration for fifty percent inhibition (EC50) was calculated with Microsoft Excel Xlfit curve fitting software. For each compound, curves were generated from percent inhibition calculated at 10 different concentrations by using a four paramenter logistic model (model 205).

Row | SMILES | EC50
1 | COc1cnc(-n2cnc(C)n2)c2[nH]cc(C(=O)C(=O)N3CCc4c(c5cc(F)ccc5n4-c4ccccc4)C3)c12 [Example 8, 1-(8-Fluoro-5-phenyl-1,3,4,5-tetrahydro-pyrido[4,3-b]indol-2-yl)-2-[4-methoxy-7-(3-methyl-1,2,4-triazol-1-yl)-6-azaindol-3-yl]-ethane-1,2-dione] | < 1 µM
2 | COc1ncc(OC)c2c(C(=O)C(=O)N3CCc4[nH]c5ccccc5c4C3)c[nH]c12 [Example 2, 1-(1,3,4,5-Tetrahydro-pyrido[4,3-b]indol-2-yl)-2-(4,7-dimethoxy-6-azaindol-3-yl)-ethane-1,2-dione] | > 5 µM
3 | COc1cnc(-n2cnc(C)n2)c2[nH]cc(C(=O)C(=O)N3CCc4c(c5ccccc5n4-c4ccccc4)C3)c12 [Example 6, 1-(5-Phenyl-1,3,4,5-tetrahydro-pyrido[4,3-b]indol-2-yl)-2-[4-methoxy-7-(3-methyl-1,2,4-triazol-1-yl)-6-azaindol-3-yl]-ethane-1,2-dione] | < 1 µM
4 | COc1cnc(-n2ccnn2)c2[nH]cc(C(=O)C(=O)N3CCc4c(c5cc(F)ccc5n4-c4ccccc4)C3)c12 [Example 9, 1-(8-Fluoro-5-phenyl-1,3,4,5-tetrahydro-pyrido[4,3-b]indol-2-yl)-2-[4-methoxy-7-(1,2,3-triazol-1-yl)-6-azaindol-3-yl]-ethane-1,2-dione] | < 1 µM
5 | COc1cnc(-n2ncnc2C)c2[nH]cc(C(=O)C(=O)N3CCc4c(c5ccccc5n4-c4ccccc4)C3)c12 [Example 7, 1-(5-Phenyl-1,3,4,5-tetrahydro-pyrido[4,3-b]indol-2-yl)-2-[4-methoxy-7-(5-methyl-1,2,4-triazol-1-yl)-6-azaindol-3-yl]-ethane-1,2-dione] | < 1 µM
6 | COc1ncc(OC)c2c(C(=O)C(=O)N3CCc4c(c5cc(F)ccc5n4C)C3)c[nH]c12 [Example 4, 1-(8-Fluoro-5-methyl-1,3,4,5-tetrahydro-pyrido[4,3-b]indol-2-yl)-2-(4,7-dimethoxy-6-azaindol-3-yl)-ethane-1,2-dione] | < 1 µM
7 | COc1ncc(OC)c2c(C(=O)C(=O)N3CCc4[nH]c5ccc(F)cc5c4C3)c[nH]c12 [Example 3, 1-(8-Fluoro-1,3,4,5-tetrahydro-pyrido[4,3-b]indol-2-yl)-2-(4,7-dimethoxy-6-azaindol-3-yl)-ethane-1,2-dione] | > 5 µM
8 | COc1ncc(OC)c2c(C(=O)C(=O)N3CCc4[nH]c5ccc(C(F)(F)F)cc5c4C3)c[nH]c12 [Example 5, 1-(8-Trifluoromethyl-1,3,4,5-tetrahydro-pyrido[4,3-b]indol-2-yl)-2-(4,7-dimethoxy-6-azaindol-3-yl)-ethane-1,2-dione] | 1 to 5 µM
9 | COc1ncc(OC)c2c(C(=O)C(=O)N3CCc4c(c5ccccc5n4-c4ccccc4)C3)c[nH]c12 [Example 1, 1-(5-Phenyl-1,3,4,5-tetrahydro-pyrido[4,3-b]indol-2-yl)-2-(4,7-dimethoxy-6-azaindol-3-yl)-ethane-1,2-dione] | < 1 µM
